In general, IC50 refers to the concentration at which inhibition is half-maximal.

This passage reports IC50 results from patent US20250361230A1, “LATS Inhibitors and Uses Thereof” (The USA, as Represented by the Secretary, Dept. of Heath …, priority 2022, published 2025).

SMILES strings stand for the structures.

The assay has as its target T1, LATS1 (Homo sapiens, UniProt O95835).
T1 sequence (O95835 1-1130): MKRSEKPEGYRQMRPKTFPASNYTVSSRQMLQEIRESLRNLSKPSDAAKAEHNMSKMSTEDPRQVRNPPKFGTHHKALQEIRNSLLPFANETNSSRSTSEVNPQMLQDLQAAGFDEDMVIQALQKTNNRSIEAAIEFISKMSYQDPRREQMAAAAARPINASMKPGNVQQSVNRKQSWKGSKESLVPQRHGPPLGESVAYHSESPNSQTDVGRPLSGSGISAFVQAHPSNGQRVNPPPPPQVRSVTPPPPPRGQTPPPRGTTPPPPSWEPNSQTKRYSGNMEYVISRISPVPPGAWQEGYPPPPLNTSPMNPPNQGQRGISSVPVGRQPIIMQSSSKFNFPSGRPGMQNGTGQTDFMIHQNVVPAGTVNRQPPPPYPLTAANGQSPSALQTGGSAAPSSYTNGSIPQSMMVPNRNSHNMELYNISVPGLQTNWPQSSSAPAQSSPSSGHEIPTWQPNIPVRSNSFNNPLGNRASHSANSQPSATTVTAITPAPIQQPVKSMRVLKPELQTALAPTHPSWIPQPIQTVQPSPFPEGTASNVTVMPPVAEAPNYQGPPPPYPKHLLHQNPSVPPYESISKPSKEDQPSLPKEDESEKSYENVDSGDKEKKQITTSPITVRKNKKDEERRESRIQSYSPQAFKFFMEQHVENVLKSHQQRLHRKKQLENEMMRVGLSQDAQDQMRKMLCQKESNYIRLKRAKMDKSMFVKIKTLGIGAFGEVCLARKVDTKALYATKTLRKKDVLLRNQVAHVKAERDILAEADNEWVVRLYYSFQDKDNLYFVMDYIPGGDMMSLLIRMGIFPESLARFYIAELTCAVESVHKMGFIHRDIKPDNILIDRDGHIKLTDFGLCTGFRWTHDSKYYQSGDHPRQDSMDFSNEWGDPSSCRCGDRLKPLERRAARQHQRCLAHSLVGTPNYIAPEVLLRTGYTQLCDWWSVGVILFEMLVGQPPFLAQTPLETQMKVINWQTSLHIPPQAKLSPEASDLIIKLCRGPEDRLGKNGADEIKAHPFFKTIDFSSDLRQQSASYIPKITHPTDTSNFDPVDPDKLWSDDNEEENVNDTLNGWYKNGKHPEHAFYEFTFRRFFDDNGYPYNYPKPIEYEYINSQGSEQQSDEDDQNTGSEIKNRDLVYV
Briefly: RBC HotSpot kinase assay (33P-ATP, P81 filter-binding), LATS1. In kind it is biochemical. As to conditions: Table 28, biochemical kinase assay; read-out: LATS1 IC50. An outline of the steps:
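IC50 in nM was derived from 10-point, single-replicate titrations. Read-out was radiometric P81 filter binding following a 2 h room-temperature reaction with 33P-ATP, after 20 min compound preincubation.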

On to `C[C@@H]1CN(CC(N)=O)C[C@H](C)[C@@]1(O)c1c(F)cc(-c2ccnc3[nH]cc(F)c23)cc1F` [Compound 88, 2-((3R,4s,5S)-4-(2,6-difluoro-4-(3-fluoro-1H-pyrrolo[2,3-b]pyridin-4-yl)phenyl)-4-hydroxy-3,5-dimethylpiperidin-1-yl)acetamide], for which the IC50 turned out to be 2.5 nM.

On to `C[C@@H]1CN(C2CCNCC2)C[C@H](C)[C@@]1(O)c1c(F)cc(-c2ccnc3[nH]cc(F)c23)cc1F` [Compound 90, (3R,4s,5S)-4-(2,6-difluoro-4-(3-fluoro-1H-pyrrolo[2,3-b]pyridin-4-yl)phenyl)-3,5-dimethyl-[1,4′-bipiperidin]-4-ol], for which the IC50 was 4.9 nM. For the compound `OC1(c2ccc(-c3ccnc4[nH]cc(F)c34)cc2)CCNCC1` [Compound 110, 4-(4-(3-fluoro-1H-pyrrolo[2,3-b]pyridin-4-yl)phenyl)piperidin-4-ol], the IC50 was 5.7 nM. To `OC1(c2ccc(-c3ccnc4[nH]ccc34)cc2)CCNCC1` [Compound 111, 4-(4-(1H-pyrrolo[2,3-b]pyridin-4-yl)phenyl)piperidin-4-ol] belongs 22 nM.

In the case of `Cc1cc(-c2ccnc3[nH]cc(F)c23)cc(F)c1C1(O)CC2(CN(C3COC3)C2)C1` [Compound 139, 6-(2-fluoro-4-(3-fluoro-1H-pyrrolo[2,3-b]pyridin-4-yl)-6-methylphenyl)-2-(oxetan-3-yl)-2-azaspiro[3.3]heptan-6-ol], the IC50 was determined as 5.9 nM. The same measure for `O=C([C@H]1CCCN1)N1CCC(O)(c2ccc(-c3ccnc4[nH]cc(F)c34)cc2)CC1` [Compound 142]: 7.8 nM; for `Fc1c[nH]c2nccc(-c3ccc(C4CCNCC4)cc3)c12` [Compound 169, 3-fluoro-4-(4-(piperidin-4-yl)phenyl)-1H-pyrrolo[2,3-b]pyridine]: 15 nM.

For the compound `Fc1c[nH]c2nccc(-c3ccc(C4CCNCC4)c(Cl)c3)c12` [Compound 172, 4-(3-chloro-4-(piperidin-4-yl)phenyl)-3-fluoro-1H-pyrrolo[2,3-b]pyridine], the IC50 was 9.6 nM. `Clc1c[nH]c2nccc(-c3ccc(C4CCNCC4)cc3)c12` [Compound 173, 3-chloro-4-(4-(piperidin-4-yl)phenyl)-1H-pyrrolo[2,3-b]pyridine]: the IC50 is 7.2 nM. On to `Cc1cc(-c2ccnc3[nH]ccc23)ccc1C1CCNCC1` [Compound 177, 4-(3-methyl-4-(piperidin-4-yl)phenyl)-1H-pyrrolo[2,3-b]pyridine], for which the IC50 was 11 nM. To `c1cc(-c2ccc(C3CC4CCC(C3)N4)cc2)c2cc[nH]c2n1` (stereo not drawn) [Compound 184, 4-(4-(8-azabicyclo[3.2.1]octan-3-yl)phenyl)-1H-pyrrolo[2,3-b]pyridine] belongs 25 nM; to `CC1CC(c2ccc(-c3ccnc4[nH]ccc34)cc2)CC(C)N1` (stereo not drawn) [Compound 187, 4-(4-(2,6-dimethylpiperidin-4-yl)phenyl)-1H-pyrrolo[2,3-b]pyridine], 66.1 nM.

For the compound `CC1(c2ccc(-c3ccnc4[nH]ccc34)cc2)CCNCC1` [Compound 201, 4-(4-(4-methylpiperidin-4-yl)phenyl)-1H-pyrrolo[2,3-b]pyridine], the IC50 amounted to 59 nM. Turning to `Cc1cc(-c2ccnc3[nH]cc(F)c23)ccc1CN` [Compound 211, (4-(3-fluoro-1H-pyrrolo[2,3-b]pyridin-4-yl)-2-methylphenyl) methanamine], the 50% inhibitory concentration (IC50) came out at 3.7 nM.

Regarding `NCc1ccc(-c2ccnc3[nH]cc(-c4ccccc4)c23)cc1-c1ccccc1` [Compound 219, (5-(3-phenyl-1H-pyrrolo[2,3-b]pyridin-4-yl)-[1,1′-biphenyl]-2-yl)methanamine], the IC50 was found to be 39 nM. In the case of `COC(=O)c1c[nH]c2nccc(-c3ccc(CN)cc3)c12` [Compound 223, methyl 4-(4-(aminomethyl)phenyl)-1H-pyrrolo[2,3-b]pyridine-3-carboxylate], the IC50 came to 27.4 nM. Take `Cc1cccc(-c2c[nH]c3nccc(-c4ccc(CN)cc4)c23)c1` [Compound 230, (4-(3-(m-tolyl)-1H-pyrrolo[2,3-b]pyridin-4-yl)phenyl) methanamine]: the IC50 worked out at 17 nM.

Turning to `CC(C)(N)c1ccc(-c2ccnc3[nH]cc(F)c23)cc1` [Compound 238, 2-(4-(3-fluoro-1H-pyrrolo[2,3-b]pyridin-4-yl)phenyl)propan-2-amine], the IC50 was 1.1 nM. `NCc1ccc(-c2ccnc3[nH]cc(-c4cccnc4)c23)cc1` [Compound 245, (4-(3-(pyridin-3-yl)-1H-pyrrolo[2,3-b]pyridin-4-yl)phenyl) methanamine]: the IC50 was 12 nM. The same measure for `NCc1ccc(-c2ccnc3[nH]cc(-c4ccccc4)c23)cc1` [Compound 253, (4-(3-phenyl-1H-pyrrolo[2,3-b]pyridin-4-yl)phenyl) methanamine]: 13 nM.

Regarding `Cc1cc(-c2ccnc3[nH]cc(Cl)c23)ccc1CN` [Compound 254, (4-(3-chloro-1H-pyrrolo[2,3-b]pyridin-4-yl)-2-methylphenyl) methanamine], the IC50 was 3.4 nM. The same measure for `Cc1cc(-c2ccnc3[nH]ccc23)ccc1CN` [Compound 266, (2-methyl-4-(1H-pyrrolo[2,3-b]pyridin-4-yl)phenyl) methanamine]: 6 nM. As to `c1cc(-c2ccc3c(c2)CCNC3)c2cc[nH]c2n1` [Compound 267, 6-(1H-pyrrolo[2,3-b]pyridin-4-yl)-1,2,3,4-tetrahydroiso-quinoline], the IC50 was 11 nM. Consider `c1cc(-c2ccc(C3CCCCN3)cc2)c2cc[nH]c2n1` (stereo not drawn) [Compound 271, 4-(4-(piperidin-2-yl)phenyl)-1H-pyrrolo[2,3-b]pyridine], for which the IC50 amounted to 20 nM. Take `NCc1ccc(-c2ccnc3[nH]cc(F)c23)cc1` [Compound 275, (4-(3-fluoro-1H-pyrrolo[2,3-b]pyridin-4-yl)phenyl) methanamine]: the IC50 amounted to 13 nM. For the compound `NCc1ccc(-c2ccnc3[nH]cc(Cl)c23)cc1` [Compound 276, (4-(3-chloro-1H-pyrrolo[2,3-b]pyridin-4-yl)phenyl) methanamine], the IC50 stood at 12 nM. On to `NCc1ccc(-c2ccnc3[nH]ccc23)cc1C(F)(F)F` [Compound 284, (4-(1H-pyrrolo[2,3-b]pyridin-4-yl)-2-(trifluoromethyl)phenyl) methanamine], for which the IC50 worked out at 10 nM. On to `NCc1ccc(-c2ccnc3[nH]ccc23)cc1` [Compound 287, (4-(1H-pyrrolo[2,3-b]pyridin-4-yl)phenyl) methanamine], for which the IC50 was 23 nM. On to `Cc1cc(-c2ccnc3[nH]cc(F)c23)cc(F)c1[C@@]1(O)[C@H](C)CN(C)C[C@@H]1C` [Compound 304, (3S,4s,5R)-4-(2-fluoro-4-(3-fluoro-1H-pyrrolo[2,3-b]pyridin-4-yl)-6-methylphenyl)-1,3,5-trimethylpiperidin-4-ol], for which the IC50 was found to be 5.1 nM.

Take `Cc1cc(-c2ccnc3[nH]cc(F)c23)cc(F)c1[C@@]1(O)[C@H](C)CN(C(C)C)C[C@@H]1C` [Compound 305, (3S,4s,5R)-4-(2-fluoro-4-(3-fluoro-1H-pyrrolo[2,3-b]pyridin-4-yl)-6-methylphenyl)-1-isopropyl-3,5-dimethylpiperidin-4-ol]: the IC50 turned out to be 4.1 nM. With `COC(=O)c1c[nH]c2nccc(-c3cc(C)c([C@@]4(O)[C@H](C)CN(C5CCS(=O)(=O)CC5)C[C@@H]4C)c(F)c3)c12` [Compound 309, methyl 4-(4-((3S,4s,5R)-1-(1,1-dioxidotetrahydro-2H-thiopyran-4-yl)-4-hydroxy-3,5-dimethylpiperidin-4-yl)-3-fluoro-5-methylphenyl)-1H-pyrrolo[2,3-b]pyridine-3-carboxylate], the IC50 worked out at 3.1 nM. With `COC(=O)c1c[nH]c2nccc(-c3cc(C)c([C@@]4(O)[C@H](C)CN(C(=O)CN)C[C@@H]4C)c(F)c3)c12` [Compound 310, methyl 4-(3-fluoro-4-((3S,4s,5R)-1-glycyl-4-hydroxy-3,5-dimethylpiperidin-4-yl)-5-methylphenyl)-1H-pyrrolo[2,3-b]pyridine-3-carboxylate], the IC50 came out at 5.1 nM. Take `Cc1cc(-c2ccnc3[nH]cc(F)c23)cc(F)c1[C@@]1(O)[C@H](C)CN(C(=O)[C@H](N)CO)C[C@@H]1C` [Compound 312, (R)-2-amino-1-((3S,4R,5R)-4-(2-fluoro-4-(3-fluoro-1H-pyrrolo[2,3-b]pyridin-4-yl)-6-methylphenyl)-4-hydroxy-3,5-dimethylpiperidin-1-yl)-3-hydroxypropan-1-one]: the IC50 was 8.1 nM.
